This note sets out measurements from US8343964B2, “Indolic derivatives, their preparation processes and their uses in particular as antibacterials” (Universite Joseph Fourier, priority 2007, dated 2013).

Series [1] is described as follows: In vitro cytotoxicity on Vero cells. As to conditions: monkey, Vero cells (monkey kidney); concentration of 10^−5 M; read-out: Average cytotoxicity (% inhibition), Vero cells. It is filed as cell-based. As to the method: (§1) The in vitro cytotoxicity results, measured at a concentration of 10^−5 M, are described below. The cytotoxicity was measured on 5 cell lines—KB (human mouth carcinoma), MCF7 (breast carcinoma) and MCF7R (resistant strain), Vero (monkey kidney) and HCT116 (human colon tumour).

The next series is described as follows: in vitro. The format is cell-based. As to conditions: human. As to the method: as §1
The test system of series [2] is KB (human mouth carcinoma). Kind of series: In vitro cytotoxicity on KB cells. The format is cell-based. The settings on record: concentration of 10^−5 M. How it is done: as §1
Series [3] is described as follows: In vitro cytotoxicity on MCF7 cells. The format is cell-based. The settings on record: human, MCF7 cells (breast carcinoma); concentration of 10^−5 M; read-out: Average cytotoxicity (% inhibition), MCF7 cells. How it is done:
as §1

Series [4] can be described thus: In vitro cytotoxicity on HCT116 cells. It is filed as cell-based. As to conditions: human, HCT116 cells (human colon tumour); concentration of 10^−5 M; read-out: Average cytotoxicity (% inhibition), HCT116 cells. How it is done:
as §1

Series [5] deals with S. aureus ITS-1199B (overexpression of the efflux pump NorA). It is filed as cell-based, Staphylococcus aureus. The settings on record: resistant strain R NorA; for MIC (μg/ml) of compound in the presence of ciprofloxacin at 4 μg/ml (c/4): ciprofloxacin 4 μg/ml (c/4); for MIC (μg/ml) of compound in the presence of ciprofloxacin at 8 μg/ml (c/2): ciprofloxacin 8 μg/ml (c/2). As to the method:
The two strains used are Staphylococcus aureus (ATCC 25923, sensitive Gram-positive strain) denoted S, and S. aureus ITS-1199 (without efflux), as well as its derivative S. aureus ITS-1199B (Kaatz, G. W., Seo, S. M., Antimicrob. Agents Chemother., 1995, 39, 2650-2655) having a resistance to the fluoroquinolones due to the overexpression of the efflux pump NorA and denoted R NorA. The bacteria are cultured at 37° C. in Mueller-Hinton (MH, Bio Rad) or Luria-Bertani (LB, Difco) Medium.
The experiences are carried out as above, but using the resistant strain, and looking at the effect of the mixture of the molecule to be tested and the antibiotic to which the bacterium is resistant. Thus, the method of a series of dilutions in Mueller-Hinton medium is used, also starting from a molecule concentration of 100 or 128 μg/ml.

As to `COc1ccc2[nH]cc(C(CNC(=O)OC(C)(C)C)N(O)Cc3ccccc3)c2c1` (centres unmarked) [Compound (7)], the cytotoxicity worked out at 8% in series [1], 10.1% in the series “in vitro”, 9.7% in series [3] and 10% in series [4]. In series [2], the “Average cytotoxicity (% inhibition), KB cells” value amounted to 15.6%.

`CC(C)(C)OC(=O)NCC(c1c[nH]c2ccc(Br)cc12)/[N+]([O-])=C/c1ccccc1` (centres unmarked) [Compound (20 bis), N-(benzylidene)-2-[N′-(tert-butoxycarbonyl)amino]-1-(5′-bromo-3′-indolyl) ethanamine N-oxide]: the “MIC (μg/ml) of compound in the presence of ciprofloxacin at 4 μg/ml (c/4)” value in series [5] is “c/2 = 1 c/4 = 1 μg/ml”. Also, in series [5], the “MIC (μg/ml) of compound in the presence of ciprofloxacin at 8 μg/ml (c/2)” value was “c/2 = 1 c/4 = 1 μg/ml”. For the same compound, the cytotoxicity in “in vitro” was 38.1%; in series [3], 23.3%. Further, the “Average cytotoxicity (% inhibition), KB cells” value in series [2] came to 38.3%.

Turning to `CC(C)(C)OC(=O)NCC(c1c[nH]c2ccccc12)N(O)Cc1ccccc1` (centres unmarked) [Compound (6)], the cytotoxicity in series [1] turned out to be 27%; in “in vitro” it was 16%; in series [3], 13.1%; in series [4], 29%. In series [5], the “MIC (μg/ml) of compound in the presence of ciprofloxacin at 4 μg/ml (c/4)” value was 4 µg/mL. In series [5], the “MIC (μg/ml) of compound in the presence of ciprofloxacin at 8 μg/ml (c/2)” value worked out at 2 µg/mL. Moreover, in series [2], the “Average cytotoxicity (% inhibition), KB cells” value is reported as 33.7%.
